Tests used:
S. aureus DSM 20231 = assay: Bliss interaction score (quartile over a dose matrix) (fitness difference); higher = more antagonism (negative = synergy)
Summary of the method: (§1)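 The Bliss score was calculated by subtracting the expected fitness, the product of single-drug values, from the observed fitness. OD595 at entry into stationary phase, over the plate's robust no-drug mean and capped at 1, served as the fitness readout. Single-drug values were inferred from combination data, and scores are summarised by quartiles across technical, biological and donor/recipient replicates.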

B. subtilis 168 [1] = assay: as above
Summary of the method: as §1

S. pneumoniae D39V [2] = assay: as above
Summary of the method: as §1

S. aureus Newman [3] = assay: as above
Summary of the method: as §1

B. subtilis 168 [4] = assay: fitness (endpoint OD595 vs no drug) (fraction); higher = more growth
Summary of the method: (§2)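 Growth medium was TSB, LB Lennox or CY, and plates were kept at 37 °C. Inoculation was at OD595 0.01 in 384-well plates, at 30 µl per well or 55 µl for S. pneumoniae. OD595 was monitored every 30 min for 14 h and background-subtracted using the first reading. Fitness is the optical density on entering stationary phase divided by the robust mean of no-drug controls, with values capped at 1.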

S. pneumoniae D39V [5] = assay: as above
Summary of the method: as §2

S. aureus Newman [6] = assay: as above
Summary of the method: as §2
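For Bliss interaction score (quartile over a dose matrix) in this document: first quartile when negative (synergy) and third quartile when positive (antagonism).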

CNC(C)C1CCC(N)C(OC2C(N)CC(N)C(OC3OCC(C)(O)C(NC)C3O)C2O)O1 (configuration not stated) [Gentamicin] + Cc1onc(-c2ccccc2)c1C(=O)N[C@@H]1C(=O)N2[C@@H]1SC(C)(C)[C@@H]2C(=O)O [Oxacillin]
main component drawn
Conditions	Bliss interaction score
B. subtilis 168 [1]	-0.0859
S. aureus DSM 20231	0.0545
S. aureus Newman [3]	0.0666
S. pneumoniae D39V [2]	0.104

main component drawn
Conditions	fitness
B. subtilis 168 [4], first compound 0.0625 µg/mL, partner 0.002 µg/mL	0.899
B. subtilis 168 [4], first compound 0.0625 µg/mL, partner 0.004 µg/mL	0.82
B. subtilis 168 [4], first compound 0.125 µg/mL, partner 0.002 µg/mL	0.275
B. subtilis 168 [4], first compound 0.125 µg/mL, partner 0.004 µg/mL	0.0851
B. subtilis 168 [4], first compound 0.125 µg/mL, partner 0.008 µg/mL	0.0748
B. subtilis 168 [4], first compound 0.25 µg/mL, partner 0.002 µg/mL	0.0462
B. subtilis 168 [4], first compound 0.25 µg/mL, partner 0.004 µg/mL	0.0441
B. subtilis 168 [4], first compound 0.25 µg/mL, partner 0.008 µg/mL	0.0454
S. aureus Newman [6], first compound 0.5 µg/mL, partner 0.0156 µg/mL	0.82
S. aureus Newman [6], first compound 0.5 µg/mL, partner 0.0312 µg/mL	0.782
S. aureus Newman [6], first compound 0.5 µg/mL, partner 0.0625 µg/mL	0.672
S. aureus Newman [6], first compound 1 µg/mL, partner 0.0156 µg/mL	0.851
S. aureus Newman [6], first compound 1 µg/mL, partner 0.0312 µg/mL	0.776
S. aureus Newman [6], first compound 1 µg/mL, partner 0.0625 µg/mL	0.765
S. aureus Newman [6], first compound 2 µg/mL, partner 0.0156 µg/mL	0.901
S. aureus Newman [6], first compound 2 µg/mL, partner 0.0625 µg/mL	0.666
S. pneumoniae D39V [5], first compound 2 µg/mL, partner 0.005 µg/mL	0.985
S. pneumoniae D39V [5], first compound 2 µg/mL, partner 0.01 µg/mL	0.995
S. pneumoniae D39V [5], first compound 2 µg/mL, partner 0.02 µg/mL	0.953
S. pneumoniae D39V [5], first compound 2 µg/mL, partner 0.04 µg/mL	0.55
S. pneumoniae D39V [5], first compound 4 µg/mL, partner 0.005 µg/mL	0.999
S. pneumoniae D39V [5], first compound 4 µg/mL, partner 0.01 µg/mL	0.982
S. pneumoniae D39V [5], first compound 4 µg/mL, partner 0.02 µg/mL	0.947
S. pneumoniae D39V [5], first compound 4 µg/mL, partner 0.04 µg/mL	0.549
S. pneumoniae D39V [5], first compound 8 µg/mL, partner 0.005 µg/mL	0.963
S. pneumoniae D39V [5], first compound 8 µg/mL, partner 0.01 µg/mL	0.985
S. pneumoniae D39V [5], first compound 8 µg/mL, partner 0.02 µg/mL	0.939
S. pneumoniae D39V [5], first compound 8 µg/mL, partner 0.04 µg/mL	0.553

fitness, one replicate, main component drawn
Conditions	partner 0.0078 µg/mL	partner 0.0155 µg/mL	partner 0.0156 µg/mL	partner 0.031 µg/mL	partner 0.0312 µg/mL	partner 0.0625 µg/mL	partner 0.075 µg/mL	partner 0.15 µg/mL	partner 0.3 µg/mL
B. subtilis 168 [4], first compound 0.0625 µg/mL	≥ 1	0.976	–	0.948	–	–	0.663	0.033	0.0409
B. subtilis 168 [4], first compound 0.125 µg/mL	0.923	0.907	–	0.92	–	–	0.0517	0.0783	0.0465
B. subtilis 168 [4], first compound 0.25 µg/mL	0.265	0.218	–	0.171	–	–	0.0546	0.0554	0.0541
S. aureus Newman [6], first compound 0.375 µg/mL	–	–	0.785	–	0.736	0.648	–	–	–
S. aureus Newman [6], first compound 0.75 µg/mL	–	–	0.741	–	0.709	0.632	–	–	–
S. aureus Newman [6], first compound 1.5 µg/mL	–	–	0.581	–	0.106	0.113	–	–	–

Cc1onc(-c2ccccc2)c1C(=O)N[C@@H]1C(=O)N2[C@@H]1SC(C)(C)[C@@H]2C(=O)O [Oxacillin] + CN(C)c1cc(NC(=O)CNC(C)(C)C)c(O)c2c1C[C@H]1C[C@H]3[C@H](N(C)C)C(O)=C(C(N)=O)C(=O)[C@@]3(O)C(O)=C1C2=O [Tigecycline]
Conditions	Bliss interaction score
B. subtilis 168 [1]	0.0355
S. aureus DSM 20231	-0.0365
S. aureus Newman [3]	0.0567
S. pneumoniae D39V [2]	0.0953

Conditions	fitness
B. subtilis 168 [4], first compound 0.002 µg/mL, partner 0.039 µg/mL	≥ 1
B. subtilis 168 [4], first compound 0.002 µg/mL, partner 0.078 µg/mL	0.976
B. subtilis 168 [4], first compound 0.002 µg/mL, partner 0.156 µg/mL	0.992
B. subtilis 168 [4], first compound 0.004 µg/mL, partner 0.039 µg/mL	0.963
B. subtilis 168 [4], first compound 0.004 µg/mL, partner 0.078 µg/mL	0.943
B. subtilis 168 [4], first compound 0.004 µg/mL, partner 0.156 µg/mL	0.95
B. subtilis 168 [4], first compound 0.008 µg/mL, partner 0.039 µg/mL	0.998
B. subtilis 168 [4], first compound 0.008 µg/mL, partner 0.078 µg/mL	0.945
B. subtilis 168 [4], first compound 0.008 µg/mL, partner 0.156 µg/mL	0.962
S. aureus Newman [6], first compound 0.0156 µg/mL, partner 0.039 µg/mL	0.794
S. aureus Newman [6], first compound 0.0156 µg/mL, partner 0.078 µg/mL	0.798
S. aureus Newman [6], first compound 0.0156 µg/mL, partner 0.156 µg/mL	0.778
S. aureus Newman [6], first compound 0.0312 µg/mL, partner 0.039 µg/mL	0.751
S. aureus Newman [6], first compound 0.0312 µg/mL, partner 0.078 µg/mL	0.762
S. aureus Newman [6], first compound 0.0312 µg/mL, partner 0.156 µg/mL	0.745
S. aureus Newman [6], first compound 0.0625 µg/mL, partner 0.039 µg/mL	0.641
S. aureus Newman [6], first compound 0.0625 µg/mL, partner 0.078 µg/mL	0.663
S. aureus Newman [6], first compound 0.0625 µg/mL, partner 0.156 µg/mL	0.688
S. pneumoniae D39V [5], first compound 0.01 µg/mL, partner 0.65 µg/mL	0.928
S. pneumoniae D39V [5], first compound 0.01 µg/mL, partner 1.3 µg/mL	0.951
S. pneumoniae D39V [5], first compound 0.01 µg/mL, partner 2.6 µg/mL	0.957
S. pneumoniae D39V [5], first compound 0.02 µg/mL, partner 0.65 µg/mL	0.904
S. pneumoniae D39V [5], first compound 0.02 µg/mL, partner 1.3 µg/mL	0.891
S. pneumoniae D39V [5], first compound 0.02 µg/mL, partner 2.6 µg/mL	0.875
S. pneumoniae D39V [5], first compound 0.04 µg/mL, partner 1.3 µg/mL	0.463
S. pneumoniae D39V [5], first compound 0.04 µg/mL, partner 2.6 µg/mL	0.531

fitness, B. subtilis 168 [4], one replicate
Conditions	first compound 0.0078 µg/mL	first compound 0.0155 µg/mL	first compound 0.031 µg/mL	first compound 0.075 µg/mL	first compound 0.15 µg/mL	first compound 0.3 µg/mL
partner 0.039 µg/mL	–	–	–	0.507	0.0264	0.0457
partner 0.078 µg/mL	–	–	–	0.549	0.0459	0.0479
partner 0.125 µg/mL	≥ 1	0.964	0.968	–	–	–
partner 0.156 µg/mL	–	–	–	0.607	0.049	0.0616
partner 0.25 µg/mL	0.962	≥ 1	0.923	–	–	–
partner 0.5 µg/mL	≥ 1	0.976	0.857	–	–	–

Cc1onc(-c2ccccc2)c1C(=O)N[C@@H]1C(=O)N2[C@@H]1SC(C)(C)[C@@H]2C(=O)O [Oxacillin] + CN[C@@H]1[C@H](O[C@H]2[C@H](O[C@H]3[C@H](O)[C@@H](O)[C@H](N=C(N)N)[C@@H](O)[C@@H]3N=C(N)N)O[C@@H](C)[C@]2(O)C=O)O[C@@H](CO)[C@H](O)[C@H]1O [Streptomycin]
Conditions	Bliss interaction score
B. subtilis 168 [1]	-0.113
S. aureus DSM 20231	-0.0653
S. aureus Newman [3]	-0.0537
S. pneumoniae D39V [2]	0.093

fitness
Conditions	partner 1 µg/mL	partner 2 µg/mL	partner 4 µg/mL	partner 8 µg/mL
B. subtilis 168 [4], first compound 0.002 µg/mL	–	0.982	0.369	0.0333
B. subtilis 168 [4], first compound 0.004 µg/mL	–	0.941	0.208	0.0502
B. subtilis 168 [4], first compound 0.008 µg/mL	–	0.931	0.134	0.0492
S. aureus Newman [6], first compound 0.0156 µg/mL	0.808	0.726	–	–
S. aureus Newman [6], first compound 0.0312 µg/mL	0.738	0.644	–	–
S. aureus Newman [6], first compound 0.0625 µg/mL	0.606	0.531	–	–
S. pneumoniae D39V [5], first compound 0.01 µg/mL	–	0.938	0.98	0.909
S. pneumoniae D39V [5], first compound 0.02 µg/mL	–	0.88	0.931	0.908
S. pneumoniae D39V [5], first compound 0.04 µg/mL	–	0.33	0.399	0.441

fitness, one replicate
Conditions	first compound 0.01 µg/mL	first compound 0.02 µg/mL	first compound 0.04 µg/mL	first compound 0.075 µg/mL	first compound 0.15 µg/mL	first compound 0.3 µg/mL
B. subtilis 168 [4], partner 2 µg/mL	–	–	–	0.534	0.0325	0.0421
B. subtilis 168 [4], partner 4 µg/mL	–	–	–	0.0966	0.025	0.0294
B. subtilis 168 [4], partner 8 µg/mL	–	–	–	0.0343	0.0288	0.0352
S. pneumoniae D39V [5], partner 16 µg/mL	0.887	0.863	0.436	–	–	–

C[n+]1ccc(-c2cc[n+](C)cc2)cc1 [Paraquat] + CN(C)c1cc(NC(=O)CNC(C)(C)C)c(O)c2c1C[C@H]1C[C@H]3[C@H](N(C)C)C(O)=C(C(N)=O)C(=O)[C@@]3(O)C(O)=C1C2=O [Tigecycline]
Conditions	Bliss interaction score
B. subtilis 168 [1]	-0.0331
S. aureus DSM 20231	0.0449
S. aureus Newman [3]	0.0431
S. pneumoniae D39V [2]	-0.0568

fitness
Conditions	first compound 1.25 µg/mL	first compound 1.5 µg/mL	first compound 2.5 µg/mL	first compound 3 µg/mL	first compound 5 µg/mL	first compound 6 µg/mL
B. subtilis 168 [4], partner 0.039 µg/mL	0.982	–	0.975	–	0.88	–
B. subtilis 168 [4], partner 0.078 µg/mL	0.919	–	0.957	–	0.86	–
B. subtilis 168 [4], partner 0.156 µg/mL	0.94	–	0.93	–	0.84	–
S. aureus Newman [6], partner 0.039 µg/mL	0.905	–	0.929	–	0.881	–
S. aureus Newman [6], partner 0.078 µg/mL	≥ 1	–	0.952	–	0.934	–
S. aureus Newman [6], partner 0.156 µg/mL	0.975	–	0.925	–	0.898	–
S. pneumoniae D39V [5], partner 0.65 µg/mL	–	0.974	–	0.967	–	0.939
S. pneumoniae D39V [5], partner 1.3 µg/mL	–	0.956	–	0.986	–	0.951
S. pneumoniae D39V [5], partner 2.6 µg/mL	–	0.923	–	0.9	–	0.898

fitness, B. subtilis 168 [4], one replicate
Conditions	first compound 1.25 µg/mL	first compound 2.5 µg/mL	first compound 5 µg/mL
partner 0.125 µg/mL	≥ 1	≥ 1	≥ 1
partner 0.25 µg/mL	≥ 1	0.93	0.941
partner 0.5 µg/mL	0.998	0.973	0.893

— the supplement of paper PMC10627819
